# Key:
# IL-1β production = experiment: P. acnes-induced IL-1β production in ThP-1 monocytes (ELISA); assay type: cell-based; conditions: Homo sapiens; ThP-1 cells pre-treated 24 h, then stimulated with P. acnes; read-out: IC50 of inhibition of IL-1β production
# Method: Bacterial strain and conditions of growth. P. acnes strain 6919 was obtained from the American Type Culture Collection (Manassas, Va.) and P. acnes strains RON and PIE were isolated from patient with joint infection. All strains were grown under anaerobic conditions in reinforced clostridial liquid and solid medium (RCM) (Difco Laboratories, Detroit, Mich.). P. acnes was transferred from the bacterial stock onto RCM agar plate and incubated for 5 days under anaerobic condition by using a GasPak™ EZ Anaerobic Container System (Becton Dickinson & Co, Sparks Md., USA). A single colony was transferred into 100 ml RCM and grown as described above. Bacterial suspension was then store frozen at −80° C. in presence of 10% glycerol final. […]
# ELISA. Human IL-1β, IL-8, hBD-2 and TNF-α protein concentration were measured in the supernatants of stimulated cells using various ELISA Sets (all from Ready-Set-Go from eBioscience, except hBD-2 measurements: Human DEFB4A/BD-2 ELISA Kit from LSBio) according to the manufacturer's instructions. […] The optical density was determined at 450 nm at a wavelength correction of 540 nm.
# Both molecules, were tested to inhibit the production of IL-1β by the monocytic cell line. […] The production of IL-1β was measured on culture supernatant by ELISA and the viability of cells was estimated by MTT assay (FIG. 2).
# PPARγ = experiment: Western blot of PPARγ expression in P. acnes-stimulated HaCaT cells; assay type: cell-based, human; conditions: 25 μM, 24 h pre-treatment
# Method: Western Blot analysis. Whole cell protein extracts (25 μg) were separated by electrophoresis (LDS-PAGE) under denaturing conditions with NuPAGE Novex 4-12% Bis-Tris gel (1 mm, 12 wells, Invitrogen, UK) and proteins were transferred onto nitrocellulose membranes and saturated in 20 ml of saturation buffer consisting of TBS 1× (Tris Buffered Saline) containing 200 mM Tris, 1.4 M NaCl (pH 7.6), 5% no fat milk, 0.1% Tween 20 for 1 h. […] After washing to remove unbound antibodies, bound primary antibodies were detected by incubation for 1 h using secondary antibody against rabbit- and mouse IgG (Santa Cruz Biotechnology, SC-2357, 1:5000 and SC-2005, 1:5000, respectively). Unbound material was removed by washing and peroxidase activity was detected in a chemiluminescence assay (WesternBright ECL, Advansta, Menlo Park, USA). […]
SMILES,IC50 (IL-1β production) [µM],expression of PPARγ (PPARγ)
"Cc1cccc(CN2CCN(C(c3ccccc3)c3ccc(Cl)cc3)CC2)c1 (stereo not drawn) [meclozine, Meclozine]",~6,
"N#CC(c1ccc(Cl)cc1)c1c(Cl)cc(-n2ncc(=O)[nH]c2=O)cc1Cl (stereo not drawn) [diclazuril, Diclazuril]",~3,no change
